In patent publication US12350259B2, “Methods of treating migraine” (Allergan Pharmaceuticals International Limited, priority 2021, dated 2025):
Read-outs that look alike come from different tables or passages of the source.

Experiments:
OATP1B3 = OATP1B3 (Homo sapiens, UniProt Q9NPD5); test: Transporter substrate; type: in vitro ADME
BSEP = BSEP (Homo sapiens, UniProt O95342); test: Transporter inhibition; type: in vitro ADME; conditions: clinically relevant concentrations
UGT1A1 = UGT1A1 (Homo sapiens, UniProt P22309); test: Enzyme inhibition; type: in vitro ADME; conditions: clinically relevant concentrations
Sequence of UGT1A1 (P22309 26-533): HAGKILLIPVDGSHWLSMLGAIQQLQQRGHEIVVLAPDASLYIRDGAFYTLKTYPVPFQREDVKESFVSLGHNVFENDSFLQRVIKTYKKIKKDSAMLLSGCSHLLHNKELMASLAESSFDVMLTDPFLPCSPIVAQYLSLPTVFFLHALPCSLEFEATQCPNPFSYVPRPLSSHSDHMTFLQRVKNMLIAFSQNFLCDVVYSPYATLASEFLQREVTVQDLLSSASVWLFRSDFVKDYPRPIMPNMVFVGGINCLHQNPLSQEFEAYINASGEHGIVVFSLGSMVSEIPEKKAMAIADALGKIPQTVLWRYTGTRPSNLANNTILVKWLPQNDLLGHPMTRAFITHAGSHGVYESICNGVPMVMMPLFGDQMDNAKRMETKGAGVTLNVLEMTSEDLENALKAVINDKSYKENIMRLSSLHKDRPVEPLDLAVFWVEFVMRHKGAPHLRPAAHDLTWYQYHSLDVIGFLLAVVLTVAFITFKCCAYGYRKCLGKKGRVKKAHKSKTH

CYP3A4 = CYP3A4 (Homo sapiens, UniProt P08684); test: Elimination by metabolism; type: in vitro ADME
Sequence of CYP3A4 (P08684 whole entry): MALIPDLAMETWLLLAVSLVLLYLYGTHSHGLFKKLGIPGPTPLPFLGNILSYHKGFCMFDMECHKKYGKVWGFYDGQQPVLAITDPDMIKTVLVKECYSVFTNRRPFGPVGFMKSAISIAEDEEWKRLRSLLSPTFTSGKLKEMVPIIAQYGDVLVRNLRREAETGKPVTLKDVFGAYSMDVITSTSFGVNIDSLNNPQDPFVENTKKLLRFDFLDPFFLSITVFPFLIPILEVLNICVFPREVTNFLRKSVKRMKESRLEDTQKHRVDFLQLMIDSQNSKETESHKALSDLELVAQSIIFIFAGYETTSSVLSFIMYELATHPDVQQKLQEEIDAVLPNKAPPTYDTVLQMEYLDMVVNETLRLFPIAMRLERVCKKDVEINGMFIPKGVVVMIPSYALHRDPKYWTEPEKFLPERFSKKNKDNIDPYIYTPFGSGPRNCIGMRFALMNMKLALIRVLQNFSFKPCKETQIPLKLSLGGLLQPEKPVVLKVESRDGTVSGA

OAT1 = OAT1 (Homo sapiens, UniProt Q4U2R8); test: Transporter inhibition; type: in vitro ADME; conditions: clinically relevant concentrations
Sequence of OAT1 (Q4U2R8 whole entry): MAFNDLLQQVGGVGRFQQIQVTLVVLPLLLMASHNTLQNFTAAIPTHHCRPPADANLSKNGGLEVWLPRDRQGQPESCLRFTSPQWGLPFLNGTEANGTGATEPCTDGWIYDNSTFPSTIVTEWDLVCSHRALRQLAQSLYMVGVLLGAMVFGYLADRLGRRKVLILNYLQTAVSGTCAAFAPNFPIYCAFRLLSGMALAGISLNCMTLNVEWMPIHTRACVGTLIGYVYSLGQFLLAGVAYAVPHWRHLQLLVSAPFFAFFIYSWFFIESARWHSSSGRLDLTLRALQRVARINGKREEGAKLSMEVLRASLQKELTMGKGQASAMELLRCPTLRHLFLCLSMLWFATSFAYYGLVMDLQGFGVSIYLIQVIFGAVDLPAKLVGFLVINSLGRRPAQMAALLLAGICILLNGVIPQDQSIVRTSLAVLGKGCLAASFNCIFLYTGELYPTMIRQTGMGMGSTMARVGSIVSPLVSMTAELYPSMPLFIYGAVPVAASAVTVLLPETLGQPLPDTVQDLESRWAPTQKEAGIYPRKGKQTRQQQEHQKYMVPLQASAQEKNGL

CYP1A2 = test: CYP induction; type: in vitro ADME; conditions: clinically relevant concentrations
CYP2B6 = test: CYP induction; type: in vitro ADME; conditions: clinically relevant concentrations
OATP1B1 = OATP1B1 (Homo sapiens, UniProt Q9Y6L6); test: Transporter inhibition; type: in vitro ADME
Sequence of OATP1B1 (Q9Y6L6 whole entry): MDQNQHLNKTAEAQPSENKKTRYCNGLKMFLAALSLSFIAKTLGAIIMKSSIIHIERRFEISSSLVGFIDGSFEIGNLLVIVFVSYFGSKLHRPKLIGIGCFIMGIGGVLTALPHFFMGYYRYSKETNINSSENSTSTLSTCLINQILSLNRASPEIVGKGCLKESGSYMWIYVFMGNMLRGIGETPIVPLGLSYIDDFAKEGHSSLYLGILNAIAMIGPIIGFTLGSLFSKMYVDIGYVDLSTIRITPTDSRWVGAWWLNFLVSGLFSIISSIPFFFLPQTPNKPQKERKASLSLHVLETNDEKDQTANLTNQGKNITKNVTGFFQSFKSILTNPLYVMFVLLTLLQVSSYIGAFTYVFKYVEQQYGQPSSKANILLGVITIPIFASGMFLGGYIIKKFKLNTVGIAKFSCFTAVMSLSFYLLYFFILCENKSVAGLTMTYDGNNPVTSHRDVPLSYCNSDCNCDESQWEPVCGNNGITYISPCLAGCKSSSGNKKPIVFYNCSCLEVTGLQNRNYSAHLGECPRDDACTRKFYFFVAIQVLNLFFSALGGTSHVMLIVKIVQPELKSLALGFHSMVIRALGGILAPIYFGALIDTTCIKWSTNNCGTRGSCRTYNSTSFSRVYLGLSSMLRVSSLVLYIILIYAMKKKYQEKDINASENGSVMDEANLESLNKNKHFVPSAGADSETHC

[1] = Food effect study (high-fat meal), atogepant IR tablet: plasma PK; type: in vivo, human; conditions: for AUC(0-inf) / AUC(0-t) / Cmax / Tmax / Vd/F: both sexes, human, plasma, oral, 60 mg; for Vd/F: read-out: Vz/F
Experimental: A single-center, randomized, open-label, single-dose, 2-period cross-over study was conducted to evaluate the effect of a high-fat meal on the systemic exposure of atogepant following single-dose administration of an immediate release (IR) tablet in healthy adult participants. Secondary objectives were to evaluate the secondary PK parameters of atogepant following single-dose administration of an IR tablet formulation of atogepant in healthy participants under fasted and fed conditions; and to evaluate the safety and tolerability profiles of single-dose atogepant in healthy adult participants under fed and fasted conditions. […] Plasma samples were collected pre-dose and at predetermined time intervals up to 48 hours after dosing. Atogepant plasma concentrations were determined using a validated LC-MS/MS assay and the pharmacokinetic (PK) parameters were calculated using WinNonlin. A linear mixed-effects model with sequence, study intervention, and period as fixed effects, and participant nested within sequence as a random effect was used to compare the natural logarithm transformed values of atogepant PK parameters AUC0-t, AUC0-inf, and Cmax. Safety was monitored via ECGs, vital signs, clinical labs, and adverse events. […] Screening occurred within 21 days before dosing (Days −21 to −1). The study intervention period was scheduled for a total of 11 days (Days −1 to 10), and the follow-up visit occurred with serum chemistry on day 38 (±3), (30 [±3] days after the last dose on Day 8). PK blood samples for analysis of plasma atogepant concentrations were collected starting on Days 1 (period 1) and 8 (period 2); at 0 hour (predose) and 0.5, 1, 1.5, 2, 3, 4, 6, 8, 12, 16, 24, 36, and 48 hours postdose. • Linear mixed effects model with natural logarithm-transformed values of AUC0-t, AUC0-inf, and Cmax, as the dependent variable and terms for study intervention, sequence, and period as fixed independent variables and participant nested in sequence as a random effect.

[2] = Atogepant-quinidine gluconate (P-gp inhibition) drug interaction study: atogepant PK; type: in vivo, human
Experimental: A phase 1, single-center, single-sequence, open-label, 2-intervention, drug-drug interaction study was conducted to evaluate the effects of P-glycoprotein (P-gp) inhibition by quinidine gluconate on pharmacokinetics (PK) and safety of atogepant. In this study, healthy adults received atogepant 60 mg on day 1, quinidine gluconate 324 mg twice daily on Day 8, quinidine gluconate 648 mg twice-daily on days 9-12, and atogepant 60 mg co-administered on day 11. Plasma samples were collected on days 1 and 11.
Atogepant PK parameters calculated were peak plasma concentration (Cmax); time to Cmax (tmax); and area under plasma concentration—time curve from time 0 to time t (AUC0-t) and infinity (AUC0-∞). PK parameters of atogepant co-administered with quinidine gluconate vs. atogepant administered alone were compared using a mixed-effects model. Statistical significance was achieved if 90% confidence intervals (Cis) for least squares geometric mean ratios (GMRs) of PK parameter values for atogepant co-administered with quinidine gluconate to atogepant administered alone were within 80%-125%. Safety assessments included clinical laboratory values, vital signs, electrocardiograms, and […] adverse events (TEAEs).

[3] = Atogepant-esomeprazole interaction study: safety; type: in vivo, human; conditions: atogepant 60 mg alone or with esomeprazole magnesium 40 mg
Experimental: A phase 1, open-label, 2-intervention, single-sequence, nonrandomized, crossover, drug-drug interaction study was conducted to evaluate the effects of multiple-dose esomeprazole magnesium 40 mg on pharmacokinetics (PK) and safety of co-administered single-dose atogepant 60 mg in healthy adults.

[4] = All participants (N = 32), Treatments A, B1, B2
[5] = Treatment A: atogepant 60 mg alone (N = 32)
[6] = Treatment B1: atogepant 60 mg + rifampin 600 mg Day 7, rifampin Days 8-11 (N = 31)
[7] = Treatment B2: atogepant 60 mg + rifampin 600 mg Day 12, rifampin Day 13 (N = 31)
[8] = after Treatment B1 (atogepant + rifampin)
[9] = during the study, all treatments
[10] = Study Intervention A: 1 × 60 mg IR tablet, fed
[11] = Study Intervention B: 1 × 60 mg IR tablet, fasted
[12] = co-administered with quinidine gluconate
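Throughout, for Deaths: safety population of participants given at least one dose, adverse events recorded through clinical assessment across the whole study.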
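Throughout, for TEAE leading to treatment discontinuation: safety population of participants given at least one dose, adverse events recorded through clinical assessment across the whole study.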
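Throughout, for Treatment-Emergent Serious Adverse Events (TESAE): safety population of participants given at least one dose, adverse events recorded through clinical assessment across the whole study.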
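Throughout, for Treatment-emergent adverse events (TEAE): safety population of participants given at least one dose, adverse events recorded through clinical assessment across the whole study.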

Sequence of OATP1B3 (Q9NPD5 whole entry): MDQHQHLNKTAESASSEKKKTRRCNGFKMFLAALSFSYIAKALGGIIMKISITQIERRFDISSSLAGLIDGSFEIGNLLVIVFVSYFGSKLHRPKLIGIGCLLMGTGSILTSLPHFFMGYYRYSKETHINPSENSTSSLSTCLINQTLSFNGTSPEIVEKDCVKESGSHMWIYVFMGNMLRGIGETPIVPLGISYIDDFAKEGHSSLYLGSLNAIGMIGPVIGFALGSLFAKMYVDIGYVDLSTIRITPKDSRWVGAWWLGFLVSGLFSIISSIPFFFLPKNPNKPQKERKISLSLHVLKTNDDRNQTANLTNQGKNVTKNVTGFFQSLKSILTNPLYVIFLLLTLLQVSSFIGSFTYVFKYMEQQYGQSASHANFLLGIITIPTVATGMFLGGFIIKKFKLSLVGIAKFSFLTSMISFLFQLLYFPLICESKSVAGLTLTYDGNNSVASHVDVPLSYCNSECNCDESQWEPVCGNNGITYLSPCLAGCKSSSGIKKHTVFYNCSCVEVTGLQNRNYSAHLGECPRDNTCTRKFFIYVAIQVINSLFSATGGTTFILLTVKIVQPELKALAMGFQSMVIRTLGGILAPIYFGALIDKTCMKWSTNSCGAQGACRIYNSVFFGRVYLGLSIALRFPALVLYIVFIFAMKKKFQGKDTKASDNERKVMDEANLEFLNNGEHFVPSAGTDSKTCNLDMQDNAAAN
Sequence of BSEP (O95342 whole entry): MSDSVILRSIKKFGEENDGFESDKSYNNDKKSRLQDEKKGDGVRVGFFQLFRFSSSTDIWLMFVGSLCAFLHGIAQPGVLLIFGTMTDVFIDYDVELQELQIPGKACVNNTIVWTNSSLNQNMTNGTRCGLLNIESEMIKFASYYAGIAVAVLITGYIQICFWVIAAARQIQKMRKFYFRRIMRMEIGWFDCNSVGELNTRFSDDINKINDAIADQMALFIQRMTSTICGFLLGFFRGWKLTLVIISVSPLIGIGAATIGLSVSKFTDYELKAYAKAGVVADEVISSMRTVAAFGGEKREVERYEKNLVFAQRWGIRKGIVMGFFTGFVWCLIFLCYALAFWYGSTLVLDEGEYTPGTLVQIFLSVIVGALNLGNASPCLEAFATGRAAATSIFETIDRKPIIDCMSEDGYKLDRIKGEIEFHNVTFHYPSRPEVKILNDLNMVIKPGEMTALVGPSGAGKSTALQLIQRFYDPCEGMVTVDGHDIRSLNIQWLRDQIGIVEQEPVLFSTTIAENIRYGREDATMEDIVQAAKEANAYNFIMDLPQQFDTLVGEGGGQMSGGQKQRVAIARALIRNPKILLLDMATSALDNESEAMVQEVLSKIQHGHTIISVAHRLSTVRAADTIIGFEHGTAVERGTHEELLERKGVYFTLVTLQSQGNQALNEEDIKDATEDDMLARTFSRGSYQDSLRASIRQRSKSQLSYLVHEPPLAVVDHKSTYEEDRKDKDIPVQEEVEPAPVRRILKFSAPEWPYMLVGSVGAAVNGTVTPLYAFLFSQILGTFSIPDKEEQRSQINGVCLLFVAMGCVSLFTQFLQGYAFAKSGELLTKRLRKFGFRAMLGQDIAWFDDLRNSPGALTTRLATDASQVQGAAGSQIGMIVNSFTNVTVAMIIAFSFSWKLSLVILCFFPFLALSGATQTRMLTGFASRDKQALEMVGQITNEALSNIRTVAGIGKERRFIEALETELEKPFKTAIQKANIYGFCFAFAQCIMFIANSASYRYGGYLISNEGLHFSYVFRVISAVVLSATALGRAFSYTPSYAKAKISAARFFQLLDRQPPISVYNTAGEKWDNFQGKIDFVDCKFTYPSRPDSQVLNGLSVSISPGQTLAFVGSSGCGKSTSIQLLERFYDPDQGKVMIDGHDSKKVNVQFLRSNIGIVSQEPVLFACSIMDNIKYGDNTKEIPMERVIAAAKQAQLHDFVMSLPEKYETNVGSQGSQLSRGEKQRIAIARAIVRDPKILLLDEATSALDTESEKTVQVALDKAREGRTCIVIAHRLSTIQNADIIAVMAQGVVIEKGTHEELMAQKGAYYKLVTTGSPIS

C[C@@H]1[C@H](c2c(F)ccc(F)c2F)C[C@H](NC(=O)c2cnc3c(c2)C[C@@]2(C3)C(=O)Nc3ncccc32)C(=O)N1CC(F)(F)F [atogepant, (3′S)-N-[(3S,5S,6R)-6-methyl-2-oxo-1-(2,2,2-trifluoroethyl)-5-(2,3,6-trifluorophenyl)piperidin-3-yl]-2′-oxo-1′,2′,5,7-tetrahydrospiro[cyclopenta[b]pyridine-6,3′-pyrrolo[2,3-b]pyridine]-3-carboxamide]
substrate of OATP1B3 (OATP1B3): substrate
inhibition of BSEP (BSEP): not an inhibitor
inhibition of UGT1A1 (UGT1A1): does not inhibit
route of elimination (metabolism) (CYP3A4): primarily by CYP3A4
inhibition of OAT1 (OAT1): not an inhibitor
induction of CYP1A2 (CYP1A2): not an inducer
Deaths [4]: 0 n (%)
TEAE leading to treatment discontinuation [4]: 0 n (%)
Treatment-Emergent Serious Adverse Events (TESAE) [4]: 0 n (%)
Treatment-emergent adverse events (TEAE) [4]: 11 (34.4) n (%)
Deaths [5]: 0 n (%)
TEAE leading to treatment discontinuation [5]: 0 n (%)
Treatment-Emergent Serious Adverse Events (TESAE) [5]: 0 n (%)
Treatment-emergent adverse events (TEAE) [5]: 0 n (%)
Deaths [6]: 0 n (%)
TEAE leading to treatment discontinuation [6]: 0 n (%)
Treatment-Emergent Serious Adverse Events (TESAE) [6]: 0 n (%)
Treatment-emergent adverse events (TEAE) [6]: 8 (25.8) n (%)
Deaths [7]: 0 n (%)
TEAE leading to treatment discontinuation [7]: 0 n (%)
Treatment-Emergent Serious Adverse Events (TESAE) [7]: 0 n (%)
Treatment-emergent adverse events (TEAE) [7]: 5 (16.1) n (%)
participants with at least one treatment-related TEAE [8]: 12.9%
participants with headache (most common TEAE) [8]: 6.5%
participants with at least one treatment-related TEAE (after Treatment B2 (atogepant + rifampin)): 6.5%
changes in clinical laboratory test results, vital signs, ECG findings (atogepant alone or with rifampin): no notable changes from baseline
tolerability (atogepant and rifampin, healthy participants): well tolerated
participants with at least one treatment-related TEAE [9]: 15.6%
participants with mild TEAEs [9]: 31.3%
participants with moderate TEAEs (during the study, after Treatment B1): 3.1%
participants with treatment-related nausea (during the study, one after B1, one after B2): 6.3%
induction of CYP2B6 (CYP2B6): not an inducer
inhibition of OATP1B1 (OATP1B1): weak inhibitor
CL/F [1, 10]: 26.10 L/h
Tlag (median) [1, 10]: 0 h
tt/2 [1, 10]: 9.41 h
λz [1, 10]: 0.0840 h⁻¹
CL/F [1, 11]: 21.03 L/h
Tlag (median) [1, 11]: 0 h
tt/2 [1, 11]: 9.71 h
λz [1, 11]: 0.0799 h⁻¹
AUC(0-inf) ([1]; Fasted (Ref), read-out: AUC0-inf GLSM): 3160 ng·h/mL
AUC(0-t) ([1]; Fasted (Ref), read-out: AUC0-t GLSM): 3130 ng·h/mL
Cmax ([1]; Fasted (Ref), read-out: Cmax GLSM): 677 ng/mL
Tmax ([1]; Fasted (ref), read-out: Tmax Median): 2.01 h
AUC(0-inf) ([1]; Fed (Test), read-out: AUC0-inf GLSM): 2610 ng·h/mL
AUC(0-t) ([1]; Fed (Test), read-out: AUC0-t GLSM): 2560 ng·h/mL
Cmax ([1]; Fed (Test), read-out: Cmax GLSM): 527 ng/mL
Tmax ([1]; Fed (Test), read-out: Tmax Median): 2.01 h
AUC(0-inf) ([1]; Study Intervention A: 1 × 60 mg IR tablet, fed, read-out: AUC0-inf): 3200 ng·h/mL
AUC(0-t) ([1]; Study Intervention A: 1 × 60 mg IR tablet, fed, read-out: AUC0-t): 3090 ng·h/mL
Cmax ([1]; Study Intervention A: 1 × 60 mg IR tablet, fed, read-out: Cmax): 594 ng/mL
Tmax ([1]; Study Intervention A: 1 × 60 mg IR tablet, fed, read-out: Tmax (median)): 2.01 h
Vd/F [1, 10]: 368 L
AUC(0-inf) ([1]; Study Intervention B: 1 × 60 mg IR tablet, fasted, read-out: AUC0-inf): 3490 ng·h/mL
AUC(0-t) ([1]; Study Intervention B: 1 × 60 mg IR tablet, fasted, read-out: AUC0-t): 3460 ng·h/mL
Cmax ([1]; Study Intervention B: 1 × 60 mg IR tablet, fasted, read-out: Cmax): 732 ng/mL
Tmax ([1]; Study Intervention B: 1 × 60 mg IR tablet, fasted, read-out: Tmax (median)): 2.01 h
Vd/F [1, 11]: 299 L
Tmax ([1]; fed vs fasted, read-out: Tmax Median of Paired Differences (Test Minus Reference)): 0.5 h
AUC0-inf Ratio of GLSMs Test/Ref ([1]; fed vs fasted): 82.53%
AUC0-t Ratio of GLSMs Test/Ref ([1]; fed vs fasted): 81.70%
Cmax Ratio of GLSMs Test/Ref ([1]; fed vs fasted): 77.90%
effect on median time to maximum atogepant plasma concentration ([1]; high-fat meal): no effect
reduction of AUC ([1]; high-fat meal (fed) vs fasted): approximately 18%
AUC increase [2, 12]: approximately 25%
Cmax increase [2, 12]: 4.4%
Tmax ([2]; human, plasma, with or without quinidine gluconate, read-out: atogepant median tmax): 1.5 h
safety and tolerability [3]: safe and tolerated
